From patent US12605424B2 (priority 2019, dated 2026)
Read-outs that look alike come from different tables or passages of the source.

Assays:
[1] = test system: Br2 (600/30) exposed neonatal mice; conditions: mouse, in vivo
[2] = test system: human bronchial epithelial cells (HBECs); type: cell-based
[3] = test system: C57BL/6 mice exposed to Br2 gas; conditions: mouse, in vivo
[4] = test system: C57BL/6 mice exposed to Cl2, Br2 or COCl2; conditions: mouse, in vivo
[5] = test system: Neonatal mice exposed to Cl2; conditions: mouse, in vivo
[6] = test system: P. aeruginosa (strain PAK); conditions: mouse, in vivo
[7] = test system: P aeruginosa; type: cell-based, mouse
[8] = test system: C57BL/6 mice exposed to COCl2; conditions: mouse, in vivo
[9] = test system: Mice having sickle cell disease exposed to chlorine; conditions: mouse, in vivo
[10] = test system: C57bl/6 mice exposed to Br2; conditions: mouse, in vivo
[11] = mouse, in vivo
[12] = mouse, in vivo; remark: listed apart in the source
[13] = mouse, in vivo; cited from earlier work
[14] = target: ENaC (Homo sapiens, UniProt P37088+P51168+P51170); type: cell-based
Sequence of ENaC (P51168 whole entry): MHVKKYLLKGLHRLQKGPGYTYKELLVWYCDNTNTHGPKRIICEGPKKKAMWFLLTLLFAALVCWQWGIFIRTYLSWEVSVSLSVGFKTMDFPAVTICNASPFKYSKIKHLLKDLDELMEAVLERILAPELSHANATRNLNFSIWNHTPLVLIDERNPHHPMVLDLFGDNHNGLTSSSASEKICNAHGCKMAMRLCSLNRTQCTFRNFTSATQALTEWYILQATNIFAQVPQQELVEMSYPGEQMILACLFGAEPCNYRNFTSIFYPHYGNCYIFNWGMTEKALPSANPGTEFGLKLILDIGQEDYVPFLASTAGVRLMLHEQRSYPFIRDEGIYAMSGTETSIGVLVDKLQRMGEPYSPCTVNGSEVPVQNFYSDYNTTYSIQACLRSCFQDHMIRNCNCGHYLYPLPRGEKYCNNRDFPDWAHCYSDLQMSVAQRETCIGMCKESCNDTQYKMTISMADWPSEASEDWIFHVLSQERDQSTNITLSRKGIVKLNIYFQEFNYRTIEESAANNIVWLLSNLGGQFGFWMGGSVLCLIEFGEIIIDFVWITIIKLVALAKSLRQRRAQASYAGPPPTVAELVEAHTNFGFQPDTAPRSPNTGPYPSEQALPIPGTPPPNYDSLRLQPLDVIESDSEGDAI
Sequence of ENaC (P51170 whole entry): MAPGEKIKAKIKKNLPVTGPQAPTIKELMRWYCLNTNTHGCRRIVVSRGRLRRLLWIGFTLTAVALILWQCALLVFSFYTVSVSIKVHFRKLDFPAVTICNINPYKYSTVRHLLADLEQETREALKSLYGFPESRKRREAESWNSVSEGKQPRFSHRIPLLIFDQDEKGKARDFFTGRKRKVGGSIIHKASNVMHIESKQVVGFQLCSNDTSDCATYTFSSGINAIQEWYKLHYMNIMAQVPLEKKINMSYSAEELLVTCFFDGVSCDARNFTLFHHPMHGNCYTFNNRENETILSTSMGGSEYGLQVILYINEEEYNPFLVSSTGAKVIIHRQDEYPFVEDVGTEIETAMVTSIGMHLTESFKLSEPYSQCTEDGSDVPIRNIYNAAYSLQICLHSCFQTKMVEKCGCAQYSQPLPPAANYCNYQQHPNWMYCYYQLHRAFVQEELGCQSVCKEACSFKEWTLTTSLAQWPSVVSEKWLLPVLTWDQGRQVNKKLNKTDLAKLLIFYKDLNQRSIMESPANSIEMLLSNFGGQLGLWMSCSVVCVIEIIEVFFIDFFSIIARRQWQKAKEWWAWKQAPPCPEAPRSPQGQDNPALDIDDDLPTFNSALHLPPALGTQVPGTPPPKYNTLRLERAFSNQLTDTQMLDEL
Sequence of ENaC (P37088 whole entry): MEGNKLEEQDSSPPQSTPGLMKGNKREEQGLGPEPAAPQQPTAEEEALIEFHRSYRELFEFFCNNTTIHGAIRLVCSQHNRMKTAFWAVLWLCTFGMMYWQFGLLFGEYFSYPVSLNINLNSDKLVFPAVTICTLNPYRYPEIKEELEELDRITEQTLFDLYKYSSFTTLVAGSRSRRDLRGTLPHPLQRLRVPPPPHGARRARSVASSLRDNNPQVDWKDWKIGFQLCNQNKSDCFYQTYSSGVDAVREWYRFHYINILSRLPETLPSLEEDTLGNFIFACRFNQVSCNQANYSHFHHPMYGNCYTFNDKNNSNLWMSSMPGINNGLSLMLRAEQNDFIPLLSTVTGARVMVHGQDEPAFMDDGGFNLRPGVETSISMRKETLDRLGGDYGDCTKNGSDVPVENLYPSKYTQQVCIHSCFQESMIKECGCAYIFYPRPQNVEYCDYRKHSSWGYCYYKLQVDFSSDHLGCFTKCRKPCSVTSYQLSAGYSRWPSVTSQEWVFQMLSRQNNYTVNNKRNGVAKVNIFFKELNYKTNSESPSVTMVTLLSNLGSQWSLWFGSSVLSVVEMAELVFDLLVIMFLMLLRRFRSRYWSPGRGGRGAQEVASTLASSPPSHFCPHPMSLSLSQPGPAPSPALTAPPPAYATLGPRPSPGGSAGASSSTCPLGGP

[15] = target: CFTR (Homo sapiens, UniProt P13569); type: cell-based
[16] = test system: Na^+/K^+-ATPase; type: cell-based, human
[17] = target: α, β, γ-hENaC (Homo sapiens, UniProt P37088+P51168+P51170); type: cell-based
Sequence of α, β, γ-hENaC (P51168 whole entry): as the sequence (P51168 whole entry) above
Sequence of α, β, γ-hENaC (P51170 whole entry): as the sequence (P51170 whole entry) above
Sequence of α, β, γ-hENaC (P37088 whole entry): as the sequence (P37088 whole entry) above

[18] = target: 4 pS amiloride-sensitive highly Na^+ selective channel (ENaC) (Mus musculus, UniProt Q61180+Q9WU38+Q9WU39); type: cell-based
Sequence of 4 pS amiloride-sensitive highly Na^+ selective channel (ENaC) (Q9WU38 whole entry): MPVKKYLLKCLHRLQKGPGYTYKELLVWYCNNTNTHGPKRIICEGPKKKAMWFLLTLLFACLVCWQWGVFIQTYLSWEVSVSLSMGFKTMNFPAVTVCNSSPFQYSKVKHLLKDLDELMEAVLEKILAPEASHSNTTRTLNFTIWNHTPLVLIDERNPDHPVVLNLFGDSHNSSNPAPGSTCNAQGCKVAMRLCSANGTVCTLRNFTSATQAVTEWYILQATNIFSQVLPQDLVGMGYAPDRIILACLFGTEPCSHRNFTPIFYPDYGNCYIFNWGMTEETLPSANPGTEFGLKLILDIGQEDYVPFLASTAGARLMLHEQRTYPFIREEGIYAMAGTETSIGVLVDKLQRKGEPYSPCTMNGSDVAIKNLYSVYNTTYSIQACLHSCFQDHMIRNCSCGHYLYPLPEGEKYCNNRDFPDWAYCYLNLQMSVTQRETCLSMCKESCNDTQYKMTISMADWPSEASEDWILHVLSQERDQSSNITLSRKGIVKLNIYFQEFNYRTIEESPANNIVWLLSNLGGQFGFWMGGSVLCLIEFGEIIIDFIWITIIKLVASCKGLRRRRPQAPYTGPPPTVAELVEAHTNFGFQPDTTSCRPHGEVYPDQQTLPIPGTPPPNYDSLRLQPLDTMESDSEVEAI
Sequence of 4 pS amiloride-sensitive highly Na^+ selective channel (ENaC) (Q9WU39 whole entry): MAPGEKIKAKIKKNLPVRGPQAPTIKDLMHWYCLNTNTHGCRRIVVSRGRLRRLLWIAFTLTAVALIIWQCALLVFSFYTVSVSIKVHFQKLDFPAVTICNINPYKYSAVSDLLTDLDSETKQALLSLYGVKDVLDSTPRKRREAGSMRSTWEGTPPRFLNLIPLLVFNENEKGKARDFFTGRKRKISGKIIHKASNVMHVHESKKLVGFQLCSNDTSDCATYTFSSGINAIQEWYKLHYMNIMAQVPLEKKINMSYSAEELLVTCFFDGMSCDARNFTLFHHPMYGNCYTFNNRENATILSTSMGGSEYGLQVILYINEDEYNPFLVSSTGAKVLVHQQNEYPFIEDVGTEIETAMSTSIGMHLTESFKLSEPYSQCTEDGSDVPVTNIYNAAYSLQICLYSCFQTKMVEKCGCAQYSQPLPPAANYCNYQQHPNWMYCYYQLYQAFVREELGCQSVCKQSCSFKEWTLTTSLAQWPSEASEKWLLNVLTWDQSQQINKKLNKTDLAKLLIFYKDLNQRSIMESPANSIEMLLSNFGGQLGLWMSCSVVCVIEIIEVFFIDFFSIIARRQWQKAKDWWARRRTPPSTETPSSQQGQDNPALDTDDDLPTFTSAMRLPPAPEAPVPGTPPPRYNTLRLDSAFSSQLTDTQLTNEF
Sequence of 4 pS amiloride-sensitive highly Na^+ selective channel (ENaC) (Q61180 whole entry): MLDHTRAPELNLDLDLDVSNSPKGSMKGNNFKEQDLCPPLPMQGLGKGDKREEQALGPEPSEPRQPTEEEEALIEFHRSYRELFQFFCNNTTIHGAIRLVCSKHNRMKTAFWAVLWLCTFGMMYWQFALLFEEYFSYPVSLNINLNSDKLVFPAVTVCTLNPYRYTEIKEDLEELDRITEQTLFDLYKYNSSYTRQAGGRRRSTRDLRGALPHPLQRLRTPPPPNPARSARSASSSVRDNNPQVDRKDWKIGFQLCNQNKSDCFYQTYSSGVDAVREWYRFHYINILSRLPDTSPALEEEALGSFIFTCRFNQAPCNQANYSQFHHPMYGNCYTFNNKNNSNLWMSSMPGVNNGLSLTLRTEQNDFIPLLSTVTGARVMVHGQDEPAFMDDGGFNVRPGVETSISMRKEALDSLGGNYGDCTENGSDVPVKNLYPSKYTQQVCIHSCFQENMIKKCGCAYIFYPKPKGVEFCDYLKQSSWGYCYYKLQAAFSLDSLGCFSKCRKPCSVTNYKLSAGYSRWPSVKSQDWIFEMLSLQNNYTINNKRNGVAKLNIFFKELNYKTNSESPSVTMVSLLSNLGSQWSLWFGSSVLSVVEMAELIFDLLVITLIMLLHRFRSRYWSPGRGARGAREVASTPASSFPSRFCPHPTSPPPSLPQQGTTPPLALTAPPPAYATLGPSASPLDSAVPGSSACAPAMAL

[19] = test system: 16 pS non-selective cation channel; type: cell-based, mouse; conditions: read-out: IC50, decrease of open probability of 16 pS channel

OCC1OC([S][Au])C(O)C(O)C1O [ATG, gold(1+);(3R,4S,5S,6R)-3,4,5-trihydroxy-6-(hydroxymethyl) oxane-2-thiolate, reference compound]
mortality [1]: not effective | systemic hypoxia [1]: not effective

BrBr [Br2, bromine]
ER stress marker ATF4 [2]: increased | ER stress marker CHOP [2]: remained unaltered

O=C(/C=C/c1ccccc1)NC(NC(=S)Nc1cccc2cccnc12)C(Cl)(Cl)Cl (stereo not drawn) [salubrinal, (2E)-3-Phenyl-N-[2,2,2-trichloro-1-[[(8-quinolinylamino)thioxomethyl]amino]ethyl]2-propenamide, reference compound]
BALF elastase activity [3]: attenuated | BALF protein levels [3]: ameliorated | BALF total cell count [3]: ameliorated | Masson's trichrome staining of lungs (collagen, fibrotic changes) [3]: decreased collagen levels and lung fibrotic changes | alveolar mean linear intercept (Lm) [3]: attenuated | lung CHOP levels (immunoblot) [3]: decrease | lung hydroxyproline levels [3]: decreased collagen levels | lung phosphorylated eIF2α (immunoblot) [3]: significant increase | lung volumes (PV curve), lung compliance and inspiratory capacity [3]: prevented Br2-induced increase | plasma elastase levels [3]: attenuated

Hemopexin [Hpx]
ATF4 and CHOP, immunohistochemical staining of lung sections ([3]; ip): attenuated ATF4 and CHOP levels around airways and completely abrogated the ER stress markers in the lung parenchyma | BALF elastase activity ([3]; ip): lower | BALF protein levels ([3]; ip): significantly reduced | BALF total cell count ([3]; ip): significantly reduced | PV curve, lung compliance and inspiratory capacity ([3]; ip): prevented the shifting of the PV curve | alveolar Lm ([3]; ip): reduced | lung ATF4 (immunoblot) ([3]; ip): low levels | lung CHOP (immunoblot) ([3]; ip): low levels | lung collagen levels on Masson's trichrome staining ([3]; ip): significantly reduced | lung hydroxyproline levels ([3]; ip): significantly reduced | overall mortality (Kaplan-Meier) ([3]; ip): reduced overall mortality | plasma elastase levels ([3]; ip): lower | plasma heme ([3]; ip): reduced | BALF heme [4]: attenuated | BALF inflammatory cell count [4]: attenuated | BALF protein levels [4]: reduced | BALF proteins [4]: attenuated | mortality (Kaplan-Meier) [4]: reduced mortality | apical cytoplasm of the bronchial epithelium (histology) [5]: exhibited some improvement | cellularity of alveolar septae (histology) [5]: exhibited some recovery | mean linear intercept (MLI) [5]: decreased MLI | survival [5]: improved survival | mortality [1]: not effective | systemic hypoxia [1]: not effective | bacterial colonies from lung homogenates on agar plates [6]: grew fewer bacterial colonies | survival [6]: improved survival | bactericidal function of neutrophils (bacterial colonies on agar) [7]: improved neutrophil function | BALF protein levels [8]: reduced BALF protein levels | probability of survival [9]: higher probability of survival | survival (Kaplan Meier) [10]: improved survival | time plasma level is maintained / remains stable [11]: at least 24 h | plasma bioavailability (plasma concentration) ([11]; im): about 25 μg/ml | plasma [IgM] relative to control [12]: ≤ 8% | serum half-life [13]: approximately 7 days

ferric chloride heme
ER stress marker ATF4 [2]: increased | ER stress marker CHOP [2]: increased | ENaC activity [14]: totally inhibited | transepithelial resistance [14]: above 1500 Ohms*cm^2 | EC50 ([14]; read-out: EC50, inhibition of trans-epithelial Na^+ transport across human airway cells): 500 nM | IC50 ([14]; read-out: IC50, inhibition of amiloride-sensitive ENaC short circuit current): ~500 nM | forskolin-stimulated, GlyH-101-inhibited CFTR currents [15]: inhibited amiloride-sensitive, ENaC, but not forskolin-stimulated, GlyH-101-inhibited, CFTR, currents | Na^+/K^+-ATPase function (ouabain-sensitive current) [16]: did not impair | Na^+ current (whole cell) [17]: inhibited | inhibition of whole-cell Na^+ current ([17]; 1 µM): 80% | EC50 ([18]; read-out: EC50, inhibition of ENaC and cation Na^+ channels in mouse alveolar cells): 125 nM | IC50 ([18]; read-out: IC50, decrease of open probability of 4 pS channel): 125 nM | IC50 [19]: 125 nM

heme-Hpx complex: complex of heme with hemopexin
serum half-life [13]: approximately 7 h

nitrite [reference compound]
survival (Kaplan Meier) [10]: improved survival early
